We go through 19 compounds from US4789667A, “External pharmaceutical composition and methods of use” (priority 1984, dated 1988).

For data set [1], the system named is carrageenan-induced edema. In words: Carrageenan-induced edema inhibiting effect of betamethasone valerate ointment. The data set is classed as in vivo. The following applies: rat paw, 0.15 part betamethasone valerate, 9.85 parts enhancer, vs gel ointment base. The method, then:
The carrageenan-induced edema inhibiting effect of the ointment was examined in accordance with the method of E. Passarella [Arzneim, Forsch. 30 (I), No. 4, pages 647-651 (1980)]. Specifically, 0.1 ml of a 1% carrageenan suspension in 0.9% NaCl solution was injected into the tip of the right paw of each rat (body weight 150-175 g). The volume of the paw was measured before the administation of carrageenan and 3, 5 and 6 hours after the carrageenan administration by a mercury displacement device. The ointment was well rubbed into the inflamed site in an amount of 100 mg.
These ointments were applied to the tip of the paw, and their edema inhibiting effects were examined.
The percent edema inhibitions were calculated on the basis of the edema formation ratio of a rat to which only the gel ointment base was administered.
(Carrageenan injected into the paw causes an acute inflammation.)

Data set [2] deals with serum calcium level. The data set is classed as in vivo.
Experimental: This nasal drop contained 15 units/50 microliters of calcitonin. The nasal drop in a dose of 50 microliters was administered to the nasal cavity of a New Zealand rabbit (clean). The calcium concentration in the serum after administration was measured by using a calcium measuring kit (Iatoron Co.).
They were individually administered to the nasal cavity of a rabbit, and the concentration of calcium in the serum was measured.
Data set [3] in a line: Drug diffusion through egg shell membrane in diffusion cell with dodecyl L-pyroglutamate. The following applies: control without enhancer = 100; drug 0.05%, dodecyl L-pyroglutamate 1.0% in donor side, 37° C.
Data set [4] has as its system serum calcium level. Put plainly: Serum calcium after intrarectal (Asu^1.7)-eel calcitonin suppository in rats. In kind it is in vivo. Particulars: rat, 0.7 MRC unit calcitonin, 7 parts enhancer. As for the experimental part:
(Asu^1.7)-eel calcitonin was gradually added and mixed with the mixture to form a uniform composition. The composition was slightly warmed, and filled into a suppository container to form a suppository for rats having a diameter of about 3 mm and a length of about 8 mm. This suppository contained 0.7 MRC unit of calcitonin. The suppository was intrarectally administered to a rat, and the concentration of calcium in the blood serum after administration was measured by using a calcium measuring kit (made by Iatoron Co.).
For comparison, suppositories (Comparisons 76 to 87) composed of 93 parts of cacao butter, 7 parts of the various pyroglutamates shown in Table 6 and caltitonin and a suppository composed only of cacao butter and caltitonin (Comparison 88) were prepared. They wre individually administered intrarectally to rats, and the calcium concentration in the serum was measured.

Data set [5] concerns blood glucose level. Put plainly: Blood glucose after intrarectal hog insulin gelatin capsular suppository in rabbits. In kind it is in vivo. The following applies: rabbit, 9.6 units insulin, 10 parts enhancer. The method, then:
Fractionated coconut oil (90 parts) and 10 parts of each of the various pyroglutamates indicated in Table 7 were uniformly mixed, and then hog insulin was gradually added to form a uniform dispersion. The dispersion was filled in a gelatin capsule for suppositoes to form a gelatin capsular suppository. The suppository contained 9.6 units of insulin. The suppository was intrarectally administered to a rabbit and the blood glucose level after administration was measured by the glucose oxidase method.
For comparison, suppositories composed of 90 parts of fractionated coconut oil, 10 parts of the various pyroglutamates indicated in Table 7 (Comparisons 89 to 102) and insulin, and a suppository composed only of fractionated coconut oil and insulin (Comparison 103) were prepared, and tested in the same way as above.

The conditions of data set [6]: dog, in vivo.
Experimental: Cacao butter (80 parts), 10 parts of each of the pyroglumtamates indicated in Table 8, and 10 parts of cephalothin sodium were uniformly mixed and then slightly warmed. The mixture was filled in a suppository container to form a suppository containing 1 g of the mixture. The suppository was administered intrarectally to a Beagle dog, and the concentration of cephalothin sodium in the blood after administration was measured by the cup method.
These suppositories were individually administered intrarectally to Beagle dogs, and the concentration of cephalothin sodium in the blood was measured.

Where two headings read alike, the source gives them in different places.

Regarding `O=C1CCC(C(=O)O)N1` (racemic) [DL-Pyroglutamic acid], the Edema inhibition in data set [1] (3 hrs.) was determined as 10.8%; in data set [1] (6 hrs.), 11.4%; in data set [1] (9 hrs.), 15.2%. In addition, the “Percent decrease of the serum calcium level from that before administration” value in data set [2] (1 h) came to 2.0%; in data set [2] (2 h), 1.0%; in data set [2] (3 h), 0%; in data set [2] (5 h), 0%.

For the compound `CN(C)CCCN1c2ccccc2Sc2ccc(Cl)cc21` [Chlorpromazine], the “Relative amount of permeation after 30 minutes” value (from here on “Relative amount of permeation”) in data set [3] stood at 124.

Turning to `CCC=CCCCCCCCCOC(=O)[C@@H]1CCC(=O)N1` [Compound (220), 9-Dodecenyl L-pyroglutamate], the Edema inhibition is given as 18.3% in data set [1] (3 hrs.), 37.7% in data set [1] (6 hrs.) and 36.9% in data set [1] (9 hrs.).

As to `CC(C)=CCCC(C)CCOC(=O)[C@@H]1CCC(=O)N1` (stereo partly drawn) [Compound (224), Citronyl L-pyroglutamate], the Edema inhibition in data set [1] (3 hrs.) is reported as 19.5%; in data set [1] (6 hrs.), 38.8%; in data set [1] (9 hrs.), 38.5%. Moreover, the “Percent decrease of the serum calcium level from that before administration” value in data set [4] (1 hr.) is recorded as 29.2%; in data set [4] (2 hrs.), 26.7%; in data set [4] (3 hrs.) it was 11.4%; in data set [4] (5 hrs.) it was 0.9%; in data set [2] (1 hr., rabbit, nasal, 15 units/50 microliters calcitonin, 10 parts enhancer), 9.0%; in data set [2] (2 hrs., rabbit, nasal, 15 units/50 microliters calcitonin, 10 parts enhancer), 6.3%. The “Percent decrease of the serum calcium level from that before administration” value in data set [2] (3 hrs., rabbit, nasal, 15 units/50 microliters calcitonin, 10 parts enhancer) was determined as 2.2%; in data set [2] (5 hrs., rabbit, nasal, 15 units/50 microliters calcitonin, 10 parts enhancer), 0.6%. The “Percent decrease of the blood glucose level from that before administration” value in data set [5] (30 min.) is 29.2%; in data set [5] (1 hr.), 32.1%; in data set [5] (2 hrs.) it was 18.5%; in data set [5] (3 hrs.) it was 3.1%. Further, the “Concentration of cephalothin sodium in the blood” value in data set [6] (60 min) worked out at 300 ng/mL; in data set [6] (180 min) it was 400 ng/mL; in data set [6] (300 min), 300 ng/mL.

Consider `CC1CCC(C(C)C)C(OC(=O)[C@@H]2CCC(=O)N2)C1` (stereo partly drawn) [Compound (308), Menthyl L-pyroglutamate], for which the Edema inhibition in data set [1] (3 hrs.) was determined as 17.0%; in data set [1] (6 hrs.) it was 38.0%; in data set [1] (9 hrs.), 40.2%.

`CC1(C)C2CCC1(C)C(OC(=O)[C@@H]1CCC(=O)N1)C2` (stereo partly drawn) [Compound (310), Bornyl L-pyroglutamate]: the Edema inhibition in data set [1] (3 hrs.) came out at 17.0%; in data set [1] (6 hrs.), 39.4%; in data set [1] (9 hrs.), 40.2%.

For `CCCCCCCCCCCCCCCCCCCCOC(=O)[C@@H]1CCC(=O)N1` [Eicosanyl L-pyroglutamate], the Edema inhibition in data set [1] (3 hrs.) was found to be 9.3%; in data set [1] (6 hrs.), 10.5%; in data set [1] (9 hrs.) it was 15.6%.

As for `C[C@]12CC[C@@H]3c4ccc(O)cc4CC[C@H]3[C@@H]1CC[C@@H]2O` [Estradiol], the “Relative amount of permeation” value in data set [3] is 203.

Take `CCOC(=O)[C@@H]1CCC(=O)N1` [Ethyl L-pyroglutamate]: the Edema inhibition in data set [1] (3 hrs.) turned out to be 10.4%; in data set [1] (6 hrs.), 12.7%; in data set [1] (9 hrs.) it was 17.2%.

For `COC1=CC(=O)C[C@@H](C)[C@]12Oc1c(Cl)c(OC)cc(OC)c1C2=O` [Griseofulvin], the “Relative amount of permeation” value in data set [3] was found to be 221.

As for `CCCCCCCCCCCCCCCCCOC(=O)[C@@H]1CCC(=O)N1` [Heptadecyl L-pyroglutamate], the Edema inhibition came to 11.2% in data set [1] (3 hrs.), 10.6% in data set [1] (6 hrs.) and 16.5% in data set [1] (9 hrs.).

Take `CCCCCCCOC(=O)[C@@H]1CCC(=O)N1` [Heptyl L-pyroglutamate]: the Edema inhibition is 9.3% in data set [1] (3 hrs.), 12.8% in data set [1] (6 hrs.) and 13.7% in data set [1] (9 hrs.).

Turning to `CCCCCCOC(=O)[C@@H]1CCC(=O)N1` [Hexyl L-pyroglutamate], the Edema inhibition was 10.0% in data set [1] (3 hrs.), 11.5% in data set [1] (6 hrs.) and 13.8% in data set [1] (9 hrs.).

`COc1ccc2c(c1)c(CC(=O)O)c(C)n2C(=O)c1ccc(Cl)cc1` [Indomethacin]: the “Relative amount of permeation” value in data set [3] was determined as 220.

Take `O=C1CC[C@@H](C(=O)O)N1` [L-Pyroglutamic acid]: the Edema inhibition in data set [1] (3 hrs.) amounted to 10.3%; in data set [1] (6 hrs.) it was 11.2%; in data set [1] (9 hrs.) it was 16.3%. In addition, the “Percent decrease of the serum calcium level from that before administration” value in data set [2] (1 h) was determined as 1.9%; in data set [2] (2 h), 0.7%; in data set [2] (3 h), 0%; in data set [2] (5 h), 0%.

As for `C[C@](N)(Cc1ccc(O)c(O)c1)C(=O)O` [Methyldopa], the “Relative amount of permeation” value in data set [3] came to 153.

As for `CCCCCCCCCCCCCCCCCCOC(=O)[C@@H]1CCC(=O)N1` [Octadecyl L-pyroglutamate], the results for the Edema inhibition in data set [1] (3 hrs.), in data set [1] (6 hrs.) and in data set [1] (9 hrs.) were 10.0%, 11.4% and 14.4%, respectively.

Turning to `CCCCC[C@H](O)/C=C/[C@@H]1[C@@H](C/C=C\CCCC(=O)O)[C@@H](O)C[C@H]1O` [Prostaglandin F2], in data set [3], the “Relative amount of permeation” value is 166.

In the case of `O=C(O)c1ccccc1O` [Salicyclic acid], in data set [3], the “Relative amount of permeation” value is reported as 208.
